Measured values: patent publication US11478461B2, “[1.1.1] bicyclo compounds as indoleamine 2,3-dioxygenase inhibitors” (Merck Sharp & Dohme Corp., priority 2018, dated 2022)

Target: IDO1 (Homo sapiens, UniProt P14902)
Experiment: IDO1 Cellular Assay in Hela Cells Stimulated with IFNγ
Assay type: cell-based
Conditions: IFNγ 100 ng/mL, 300 uM L-tryptophan, about 48 hours, fluorescence readout, read-out: IDO1 HELA Cell Assay, IC50
Procedure: Biological Assays IDO1 Cellular Assay in Hela Cells Stimulated with IFNγ
Hela cells were cultured in complete Hela culture medium ([…], 10% heat-inactivated fetal bovine serum) and expanded to about 1×10^9 cells. The cells were then collected and frozen down at 10×10^6 cells/vial in 1 mL frozen medium (90% complete Hela culture medium, 10% DMSO).
Compounds to be tested were serially diluted in ten 3-fold steps in DMSO starting from 10 mM DMSO stocks in Echo low volume plate(s). Compound dilutions or DMSO alone were then dispensed from the dilution plate(s) into Greiner black 384-well assay plate(s) (catalog #781086, 50 nL/well) using an Echo 550 acoustic liquid handler (Labcyte).
Frozen Hela cells were thawed and transferred into Hela assay medium (99% complete Hela culture medium, 1% Pen/Strep) with 20 mL medium/vial of cells. The cells were spun down at 250 g in a table top centrifuge for 5 min and suspended in same volume of Hela assay medium. […] Sterile L-tryptophan were added to the cells with final concentration of 300 uM L-tryptophan. A small aliquot (2 mL/plate) of Hela cells were set aside and were not treated with IFNγ, to serve as the Max-E control. The rest of Hela cells were added with sterile IFNγ (Cat #285-IF, R & D systems) with a final concentration of 100 ng/mL.
Hela cells with and without IFNγ were dispensed to the respective wells of 384-well assay plates containing the compounds. The plates were incubated for about 48 hours at a 37° C., 5% CO2 incubator. Afterwards, 12 μL of 0.5 M methyl isonipecotate in dimethyl sulfoxide were added into each well and the plates were sealed and incubated at 37° C. without CO2 overnight. The plates were centrifuged for 1 min at 200×g. The resulting fluorescence was measured in a Spectramax plate reader (Molecular Devices) with a 400 nm excitation filter and a 510 nm emission filter.
Potencies were calculated by […] least squares fit to the four parameter logistic IC50 equation.

Sequence of IDO1 (P14902 whole entry): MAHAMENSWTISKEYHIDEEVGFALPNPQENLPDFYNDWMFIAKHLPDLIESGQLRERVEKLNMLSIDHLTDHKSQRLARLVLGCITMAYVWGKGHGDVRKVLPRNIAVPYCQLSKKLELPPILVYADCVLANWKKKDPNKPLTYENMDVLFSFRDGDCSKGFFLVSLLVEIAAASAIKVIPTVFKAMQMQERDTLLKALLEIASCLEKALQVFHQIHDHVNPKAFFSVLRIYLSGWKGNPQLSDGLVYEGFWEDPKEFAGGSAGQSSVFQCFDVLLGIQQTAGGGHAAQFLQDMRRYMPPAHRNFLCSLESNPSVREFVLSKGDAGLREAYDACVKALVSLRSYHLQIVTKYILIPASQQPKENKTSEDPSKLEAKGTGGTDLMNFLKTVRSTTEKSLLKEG

| Compound | IC50 [nM] |
| --- | --- |
| Cc1cc(C(=O)NC23CC([C@H](C)C(=O)Nc4ccc(F)cc4)(C2)C3)ccc1Cl [Example 50, 4-chloro-N-[3-[(1S)-2-(4-fluoroanilino)-1-methyl-2-oxo-ethyl]-1-bicyclo[1.1.l]pentanyl]-3-methyl-benzamide] | 3.29 |
| CC(C(=O)Nc1ccc(F)cc1)C12CC(NC(=O)c3cccnc3)(C1)C2 (stereo not drawn) [Example 142, N-[3-[2-(4-fluoroanilino)-1-methyl-2-oxo-ethyl]-1-bicyclo[1.1.1]pentanyl]pyridin-1-ium-3-carboxamide] | 418 |
| O=C(NC1(C23CC(NC(=O)c4ccc(Cl)cn4)(C2)C3)CC1)c1ccc(F)cc1 [Example 25, 5-chloro-N-(3-(1-(4-fluorobenzamido)cyclopropyl)bicyclo[1.1.1]pentan-1-yl)picolinamide] | 83.2 |
| CC(C(=O)Nc1ccc(F)cc1)C12CC(NC(=O)c3noc4c3CCCC4)(C1)C2 (stereo not drawn) [Example 115, N-[3-[2-(4-fluoroanilino)-1-methyl-2-oxo-ethyl]-1-bicyclo[1.1.1]pentanyl]-4,5,6,7-tetrahydro-1,2-benzoxazole-3-carboxamide] | 67 |
| CCc1cc(C(=O)NC23CC(C(C)C(=O)Nc4ccc(F)cc4)(C2)C3)n(C)n1 (stereo not drawn) [Example 141, 5-ethyl-N-[3-[2-(4-fluoroanilino)-1-methyl-2-oxo-ethyl]-1-bicyclo[1.1.1]pentanyl]-2-methyl-pyrazole-3-carboxamide] | 415 |
| Cc1ccc(C(=O)NC23CC([C@@H](C)C(=O)Nc4ccc(F)cc4)(C2)C3)cc1F [Example 41, 3-fluoro-N-[3-[(1R)-2-(4-fluoroanilino)-1-methyl-2-oxo-ethyl]-1-bicyclo[1.1.l]pentanyl]-4-methyl-benzamide] | 405 |
| C[C@@H](C(=O)Nc1ccc(F)cc1)C12CC(NC(=O)c3cccc(Cl)c3F)(C1)C2 [Example 38, 3-chloro-2-fluoro-N-[3-[(1R)-2-(4-fluoroanilino)-1-methyl-2-oxo-ethyl]-1-bicyclo[1.1.1]pentanyl]benzamide] | 2 |
| CC(C)(C(=O)Nc1ccc(F)cc1)C12CC(NC(=O)c3cccc(Cl)c3)(C1)C2 [Example 102, 3-Chloro-N-(3-(1-((4-fluorophenyl)amino)-2-methyl-1-oxopropan-2-yl)bicyclo[1.1.1]pentan-1-yl)benzamide] | 19.2 |
| Cc1c(Cl)cccc1C(=O)NC12CC([C@H](C)C(=O)Nc3ccc(F)cc3)(C1)C2 [Example 53, 3-chloro-N-[3-[(1S)-2-(4-fluoroanilino)-1-methyl-2-oxo-ethyl]-1-bicyclo[1.1.1]pentanyl]-2-methyl-benzamide] | 123 |
| O=C(NC12CC(C3(C(=O)Nc4ccc(F)cc4)CCC3)(C1)C2)c1cccc(Cl)c1 [Example 3, 3-Chloro-N-(3-(1-((4-fluorophenyl)carbamoyl)cyclobutyl)bicyclo [1.1.1]pentan-1-yl) Benzamide] | 6.29 |
| C[C@H](C(=O)Nc1cncc(Cl)c1)C12CC(NC(=O)c3ccc(Cl)c(Cl)c3)(C1)C2 [Example 94, (S)-3-chloro-5-(2-(3-(3,4-dichlorobenzamido)bicyclo[1.1.1]pentan-1-yl)propanamido)pyridin-1-ium 2,2,2-trifluoroacetate] | 7.78 |
| C[C@@H](C(=O)Nc1ccc(F)cc1)C12CC(NC(=O)c3ccc(F)c(Cl)c3)(C1)C2 [Example 35, 3-chloro-4-fluoro-N-[3-[(1R)-2-(4-fluoroanilino)-1-methyl-2-oxo-ethyl]-1-bicyclo[1.1.1]pentanyl]benzamide] | 122 |
| C[C@H](C(=O)Nc1ccc(F)c(C(F)(F)F)c1)C12CC(NC(=O)c3ccc(Cl)c(Cl)c3)(C1)C2 [Example 95, (S)-3,4-dichloro-N-(3-(1-((4-fluoro-3-(trifluoromethyl)phenyl)amino)-1-oxopropan-2-yl)bicyclo[1.1.1]pentan-1-yl)benzamide] | 60.6 |
| CC(C(=O)Nc1ccc(F)cc1)C12CC(NC(=O)c3cc(Cl)ccn3)(C1)C2 (stereo not drawn) [Example 112, 4-chloro-N-[3-[2-(4-fluoroanilino)-1-methyl-2-oxo-ethyl]-1-bicyclo[1.1.1]pentanyl]pyridin-1-ium-2-carboxamide] | 40.4 |
| C[C@H](C(=O)Nc1ccc(F)cc1)C12CC(NC(=O)Nc3ccc(F)c(F)c3)(C1)C2 [Example 82, (S)-2-(3-(3-(3,4-difluorophenyl)ureido)bicyclo[1.1.1]pentan-1-yl)-N-(4-fluorophenyl)propanamide] | 30.3 |
| C[C@H](C(=O)Nc1ccc(F)cc1)C12CC(NC(=O)Nc3cccc4ccccc34)(C1)C2 [Example 86, (S)-N-(4-fluorophenyl)-2-(3-(3-(naphthalen-1-yl)ureido)bicyclo[1.1.1]pentan-1-yl)propanamide] | 84.8 |
| O=C(NC1(C23CC(NC(=O)c4nc(C5CC5)no4)(C2)C3)CC1)c1ccc(F)cc1 [Example 29, 3-cyclopropyl-N-(3-(1-(4-fluorobenzamido)cyclopropyl)bicyclo[1.1.1]pentan-1-yl)-1,2,4-oxadiazole-5-carboxamide] | 276 |
| Cc1cncc(C(=O)NC23CC(C(C)C(=O)Nc4ccc(F)cc4)(C2)C3)c1 (stereo not drawn) [Example 122, N-[3-[2-(4-fluoroanilino)-1-methyl-2-oxo-ethyl]-1-bicyclo[1.1.1]pentanyl]-5-methyl-pyridin-1-ium-3-carboxamide] | 132 |
| Cc1ccc(C(=O)NC23CC([C@H](C)C(=O)Nc4ccc(F)cc4)(C2)C3)nc1C [Example 64, N-[3-[(1S)-2-(4-fluoroanilino)-1-methyl-2-oxo-ethyl]-1-bicyclo[1.1.1]pentanyl]-5,6-dimethyl-pyridin-1-ium-2-carboxamide] | 11.4 |
| C[C@@H](C(=O)Nc1ccc(F)cc1)C12CC(NC(=O)c3ccc(F)c(F)c3)(C1)C2 [Example 43, 3,4-difluoro-N-[3-[(1R)-2-(4-fluoroanilino)-1-methyl-2-oxo-ethyl]-1-bicyclo[1.1.1]pentanyl]benzamide] | 153 |
| C[C@@H](C(=O)Nc1cnc(F)c(F)c1)C12CC(NC(=O)c3ccc(Cl)c(Cl)c3)(C1)C2 [Example 88, (R)-3,4-Dichloro-N-(3-(1-((5,6-difluoropyridin-3-yl)amino)-1-oxopropan-2-yl)bicyclo[1.1.1]pentan-1-yl)benzamide] | 315 |
| CC(C(=O)Nc1ccc(F)cc1)C12CC(NC(=O)c3cccc4cnccc34)(C1)C2 (stereo not drawn) [Example 134, N-[3-[2-(4-fluoroanilino)-1-methyl-2-oxo-ethyl]-1-bicyclo[1.1.1]pentanyl]isoquinolin-2-ium-5-carboxamide] | 267 |
| Cc1cc(C(=O)NC23CC(C(C)C(=O)Nc4ccc(F)cc4)(C2)C3)n(C)n1 (stereo not drawn) [Example 139, N-[3-[2-(4-fluoroanilino)-1-methyl-2-oxo-ethyl]-1-bicyclo[1.1.1]pentanyl]-2,5-dimethyl-pyrazole-3-carboxamide] | 396 |
| C[C@H](C(=O)Nc1ccc(F)cc1)C12CC(NC(=O)c3cnc(Cl)c(Cl)c3)(C1)C2 [Example 63, 5,6-dichloro-N-[3-[(1S)-2-(4-fluoroanilino)-1-methyl-2-oxo-ethyl]-1-bicyclo[1.1.1]pentanyl]pyridin-1-ium-3-carboxamide] | 11.4 |
| CC(C)OC(=O)NC12CC([C@H](C)C(=O)Nc3ccc(F)cc3)(C1)C2 [Example 79, isopropyl (S)-(3-(1-((4-fluorophenyl)amino)-1-oxopropan-2-yl)bicyclo[1.1.1]pentan-1-yl)carbamate] | 20.4 |
| CC(C(=O)Nc1ccc(Cl)cc1)C12CC(NC(=O)OC3CC3)(C1)C2 (single isomer, unassigned) [Example 19, Cyclopropyl (3-(1-((4-chlorophenyl)amino)-1-oxopropan-2-yl)bicyclo [1.1.1]pentan-1-yl) carbamate] | 564 |
| O=C(NC12CC(C3(C(=O)Nc4ccc(F)c(F)c4)COC3)(C1)C2)c1cccc(Cl)c1 [Example 105, 3-(3-(3-Chlorobenzamido)bicyclo[1.1.1]pentan-1-yl)-N-(3,4-difluorophenyl)oxetane-3-carboxamide] | 35.8 |
| C[C@H](C(=O)Nc1ccc(F)c(Cl)c1)C12CC(NC(=O)c3ccc(Cl)c(Cl)c3)(C1)C2 [Example 96, (S)-3,4-dichloro-N-(3-(1-((3-chloro-4-fluorophenyl)amino)-1-oxopropan-2-yl)bicyclo[1.1.1]pentan-1-yl)benzamide] | 78.4 |
| Cc1cc(C(=O)NC23CC([C@@H](C)C(=O)Nc4ccc(F)cc4)(C2)C3)ccc1Cl [Example 37, 4-chloro-N-[3-[(1R)-2-(4-fluoroanilino)-1-methyl-2-oxo-ethyl]-1-bicyclo[1.1.l]pentanyl]-3-methyl-benzamide] | 135 |
| CC(C(=O)Nc1ccc(F)cc1)C12CC(NC(=O)c3cccn4nncc34)(C1)C2 (stereo not drawn) [Example 143, N-[3-[2-(4-fluoroanilino)-1-methyl-2-oxo-ethyl]-1-bicyclo[1.1.1]pentanyl]triazolo[1,5-a]pyridin-1-ium-4-carboxamide] | 448 |
